Where a name gives a salt, the structure may show the parent alone.
What was measured:
Type in all cases: cell-based
[1] = system: Moraxella catanhalis (ATCC 25240); assay: MIC test of imidazolium salt
various strains = assay: MIC test of imidazolium salt, overall statement; details: text summary of Table 7; compared with benzoalconium chloride (BKC)
[2] = system: Serratia marcescens (ATCC 27117); assay: MIC test of imidazolium salt
[3] = system: Salmonella typhimurium (ATCC 1331); assay: MIC test of imidazolium salt

C=CCn1cc[n+](CCCCCCCCCCCC)c1 [ADIm(Br), 1-allyl-3-dodecylimidazolium salt]
ADIm(Br) concentration at which strain has antibiosis [1]: 1000 µg/mL
antibacterial activity over various strains (various strains): very excellent antibacterial activity, similar to that of benzoalconium chloride (BKC)
ADIm(Br) concentration at which strain has antibiosis [2]: 1000 µg/mL
ADIm(Br) concentration at which strain has antibiosis [3]: 1000 µg/mL

Reference: patent publication US9131692B2, “Antibacterial imidazolium compound and antibacterial photocurable thiol-ene compositions comprising the same, and antibacterial polymer coatins prepared therefrom” (Korea Institute of Science and Technology, priority 2013, dated 2015)
